Read-outs that look alike come from different tables or passages of the source.
Columns and labels:
[1] = Clinical safety (treatment-emergent adverse events, MTD, NOAEL), MAD; type: in vivo
Method: The MAD part of the study was initiated after a review of safety and PK data from SAD cohorts 1 to 6. In the MAD part, 4 cohorts containing 8 subjects each were randomized to receive vamorolone or placebo, in a 3:1 ratio, once daily (QD) for 14 days. The duration of dosing in the MAD part was determined based on the PK data from the SAD part. In each cohort, 3 sentinel subjects were administered vamorolone or placebo, in a 2:1 ratio.
After completion of all scheduled safety follow-up visits for a given cohort, the SRC reviewed all available PK and safety data (AEs, physical examination findings, ECGs, vital signs, and clinical laboratory tests) in a blinded manner for the completed cohort prior to making a decision to escalate to the next higher dose level.
Dose escalation in the MAD part was to proceed according to protocol until the MTD was identified. The dose escalation stopping criteria, as listed above in the SAD section, comprised the halting rules for the MAD part. If any of these criteria were met during the 14-day dosing duration in the MAD part, dosing in that cohort was to be halted and no further dose escalation was to occur. If AEs/SAEs occurred more frequently in subjects treated with vamorolone compared to subjects treated with placebo, the SRC was to determine if dose escalation could continue. If dose escalation was terminated, the remaining cohorts could be enrolled to evaluate the safety and PK effects of vamorolone for dose levels between the previously tolerated dose and the dose level at which dose escalation was terminated. Once safety data from additional cohort(s) was assessed, the MTD was defined as the dose level below the dose at which the SRC determined there was an unacceptable risk to subjects.

[2] = SAD food effect cohort (8 mg/kg with high fat/high calorie meal) pharmacokinetics; type: in vivo, human
Method: In the SAD part of the study, 7 cohorts were to be enrolled. Eight subjects were assigned to each of Cohorts 1 to 5 and 7 and received a single oral dose of vamorolone (planned as 0.1 mg/kg, 0.3 mg/kg, 1.0 mg/kg, 3.0 mg/kg, 8.0 mg/kg, and 20.0 mg/kg, respectively) or placebo under fasted conditions. Six subjects were assigned to Cohort 6 and were administered a single oral dose of 8.0 mg/kg vamorolone within 30 min of beginning a high fat/high calorie meal.
Subjects in Cohorts 1 through 5 and 7 were randomized to receive vamorolone or placebo in a 3:1 ratio (6 subjects received vamorolone, and 2 subjects received placebo) sequentially. In Cohort 1, 3 sentinel subjects were administered vamorolone or placebo in a 2:1 ratio. Following a review of sentinel safety and tolerability data (including reported adverse events [AEs], clinical laboratory tests, vital signs, and electrocardiograms [ECGs]), the remaining 5 subjects were randomized to receive vamorolone or placebo in a 4:1 ratio and dosed no earlier than 48 h after sentinel dosing. In Cohorts 2 to 5, and 7, subjects were administered vamorolone or placebo in a 3:1 ratio. Once Cohort 5 was completed and safety data had been reviewed, subjects in Cohort 6 were administered a single oral dose of 8.0 mg/kg vamorolone within 30 min of beginning a standard high fat/high calorie meal.

adrenal suppression = system: adrenal suppression; parameters: method as in PMID 23498916, PMID 24014378, PMID 27133900; conditions: in vitro assays in multiple cell types; cited from earlier work
[3] = Aqueous solubility (statement); type: physicochemical; conditions: aqueous solutions
[4] = system: adrenal axis (first-in-morning serum cortisol); assay: First-in-morning serum cortisol (adrenal suppression biomarker), MAD; type: in vivo
Method: All biomarkers were analyzed using standard immunoassays by PRA.
Adrenal suppression is the consequence of a negative feedback loop between high circulating cortisol and pharmacological glucocorticoids and adrenal function, leading to loss of responsiveness of the adrenal cortex to ACTH. Adrenal suppression can be seen both acutely (hours after a single dose of pharmacological glucocorticoids), and chronically. Chronic treatment with glucocorticoids leads to chronic deficiencies in multiple steroidal hormones, including cortisol, testosterone, 17-hydroxyprogesterone, corticosterone, and 11-deoxycortisol. The resulting hormonal imbalance puts patients at increased risk for a series of safety concerns. One is adrenal crisis (inability to mount a cortisol stress response after trauma, severe illness, or surgery, with ensuring risk for shock and death). Other safety concerns in children include delay of puberty and growth stunting. Adrenal suppression can be measured with first-in-morning serum cortisol, reflective of the endogenous diurnal cortisol peak pre-awakening. Measurement of first-in-morning cortisol 24 h after the last drug dose indicates whether the drug has suppressed the normal diurnal cortisol response.
First in morning serum cortisol levels were measured in all Phase 1 MAD subjects, at baseline prior to first administration of vamorolone or placebo, 24 h after the first dose (acute suppression), and 24 h after 14 days of daily dosing (chronic suppression) (Fig. 4). The two placebo subjects from each dose group were combined into the same panel. […] At 9.0 mg/kg/day, there was a decline in morning cortisol in all subjects, with 1 subject below the 3.6 µg/dL after first dose, and 3 of 6 subjects after two weeks of daily dosing. […] One subject stopped dosing due to mild elevation of liver enzymes, and their morning cortisol returned to normal levels within a few days of cessation of dosing (Fig. 4). Direct head-to-head comparisons to prednisone-treated subjects were not done in this Phase 1 trial, but approximate comparisons can be done to published literature. Both Fleishaker et al. and we tested serum cortisol 24 h after the first dose of drug. Fleishaker et al. studied doses of 2.5, 5, 10, 20 mg, 40 mg, and 60 mg, with an average weight of subjects of 80 kg. […] For vamorolone, the dose groups showing decreases in morning cortisol 24 h after the initial dose were 3 mg/kg (9 µg/dL cortisol), 9 mg/kg (6 µg/dL cortisol), and 20 mg/kg (4 µg/dL cortisol). […] Two week prednisone treatment data for morning cortisol was not published.

[5] = human, plasma, single oral 8 mg/kg, fed, geometric mean (%CV)

C[C@@H]1C[C@H]2[C@@H]3CCC4=CC(=O)C=C[C@]4(C)C3=CC[C@]2(C)[C@@]1(O)C(=O)CO [vamorolone]
subjects experiencing TEAEs ([1]; MAD 1.0 mg/kg): 2 subjects | subjects experiencing TEAEs ([1]; MAD 3.0 mg/kg): none | subjects experiencing TEAEs ([1]; MAD 9.0 mg/kg): none | subjects experiencing TEAEs ([1]; MAD 20 mg/kg): 2 subjects | maximum tolerated dose (MTD) ([1]; MAD up to 20 mg/kg/day): not reached | severe adverse events ([1]; any SAD or MAD dose group): no severe adverse events | NOAEL at 14 days ([1]; human, in vivo, oral, highest dose tested, 14 days): 20 mg/kg/day | liver finding thought to be drug related ([1]; one subject, 20 mg/kg/day MAD cohort, dosing halted): mild elevations of liver enzymes | AUC(0-t) ratio of the geometric means ([2]; 8 mg/kg, fed vs fasted): 2.54 | AUC(inf) ratio of the geometric means ([2]; 8 mg/kg, fed vs fasted): 2.82 | Cmax ratio of the geometric means ([2]; 8 mg/kg, fed vs fasted): 2.53 | increase in bioavailability with a 40 g fat meal ([2]; 8 mg/kg, fed vs fasted): 250% | increase in Cmax, AUC(0-t), and AUC(inf) under fed conditions ([2]; 8 mg/kg, high calorie/high fat meal (40 g fat) vs fasted): 2.5 fold | increase in Tmax under fed conditions ([2]; 8 mg/kg, high calorie/high fat meal vs fasted): ~ 2 fold | AUC(0-inf) [2, 5]: 10200 ng·h/mL | AUC(0-t) [2, 5]: 10100 ng·h/mL | Cmax [2, 5]: 1820 ng/mL | CL/F ([2]; human, plasma, single oral 8 mg/kg, fed, geometric mean (%CV), read-out: CL/F (converted)): 13.2 mL/min/kg | Vd/F ([2]; human, plasma, single oral 8 mg/kg, fed, geometric mean (%CV), read-out: Vz/F): 2.67 L/kg | half-life ([2]; human, plasma, single oral 8 mg/kg, fed, geometric mean (%CV), read-out: t½ (converted)): 2.35 h | k el ([2]; human, plasma, single oral 8 mg/kg, fed, geometric mean (%CV), read-out: λz (converted)): 8.19e-05 s⁻¹ | Tmax ([2]; human, plasma, single oral 8 mg/kg, fed, median): 4 h | CL/F ([2]; single oral 8 mg/kg, fed, geometric mean (%CV)): 66.7 (28.4) (6) L/h | adrenal suppressive activity relative to traditional glucocorticoids (adrenal suppression): ~ 1% | solubility [3]: very poor solubility in aqueous solutions | subjects with morning cortisol below 3.6 µg/dL (adrenal suppression) ([4]; 9.0 mg/kg/day, after first dose, n = 6): 1 subjects | subjects with morning cortisol below 3.6 µg/dL (adrenal suppression) ([4]; 9.0 mg/kg/day, after two weeks of daily dosing): 3 of 6 | subjects with morning cortisol below 3.6 µg/dL (adrenal suppression) ([4]; 20.0 mg/kg/day, after a single dose): 4 of 6 | subjects with morning cortisol below 3.6 µg/dL (adrenal suppression) ([4]; 20.0 mg/kg/day, after two weeks of dosing): 5/5 | adrenal suppression ([4]; 1.0 or 3.0 mg/kg/day dose groups, acute and 14 days): No evidence of adrenal suppression | difference in potency for acute adrenal suppression (prednisone > vamorolone) ([4]; 24 h after the first dose, vamorolone data vs published prednisone data (ref 6)): 10 fold | adrenal suppression potency relative to traditional glucocorticoids ([4]; seen at 9.0 and 20.0 mg/kg/day): ~ 1%

— paper PMC6136660 (Steroids, 2018)
